Assay [1] addresses T1, cRABP (cellular Retinoic Acid-Binding Protein) (Rattus norvegicus, UniProt P62966). Kind of assay: Saturation test: fixation of ligand on soluble cRABP of rat testicle homogenate. The following applies: for nonspecific fixation (% of the total fixation): in the presence of a large excess (1 μM) of retinoic acid, ligand up to 50 nM. On the set-up: a homogenate of rat testicles (organ rich in cRABP); from tissue; host or cells: rat testicles (homogenate), inferred from the saturation test. The method, then: The total fixation (nonspecific +specific) (curva a), is obtained by incubation of increasing concentrations (up to a maximum of 50 nM) of the compound of the present invention with a constant quantity (0.3 ml) of a homogenate of rat testicles (organ rich in cRABP). […] An incubation time for 2 hours is necessary for the establishment of equilibrium conditions.
Once equilibrium is reached, the cRABP-tritiated ligand complex is separated from the nonlinked ligand by filtration on an exclusion gel Sephadex G25 column (Bio-Rad econo columns, 0.5×20 cm): the complex is eluted (elution peak at 2.5 ml), while the nonlinked ligand is retained in total on the column. A total separation is thus effected between the linked and nonlinked product. The eluation is made directly in the scintillation tubes and the radioactivity is measured by counting.
On FIG. 1, there is represented, on the abscissa, the initial concentrations of the ligand being studied, and on the ordinate, the concentrations at equilibrium of the ligand-receptor complex.
The difference between curves a (total fixation) and c (nonspecific fixation) gives the curve of specific fixation, curve b. The analysis of this curve provides the dissociation constant at equilibrium, (Kd), which is the concentration of product necessary for 50% saturation of the soluble receptor. This constant is a measure of the affinity of the ligand for its receptor, Kd being inversely proportional to affinity, (the weaker Kd is, the greater is the affinity).

Assay [2] has as its target T1, cRABP (cellular Retinoic Acid-Binding Protein). The assay is described as follows: Competition test of cold ligand against radioactive ligand for fixation on cRABP.
Method: These competition tests are carried out in the following manner: a fixed amount of the radioactive ligand (corresponding essentially to the half-saturation of the fixed amount of receptor which will be employed), is mixed with increasing quantities of cold ligand (nonradioactive). The receptor is then added and there is determined the amount of radioactive ligand fixed at equilibrium (in % of initial fixation in the absence of cold ligand, for the amount of receptor considered).
Starting from the competition curves of FIGS. 2 to 7, there is determined in each case the IC50 (concentration of cold ligand reducing the attachment of 50% of the tritiated ligand). This IC50 value permits the calculation in each case of the dissociation constant at equilibrium (Kd) for the cold ligand.

T1 sequence (P62966 whole entry): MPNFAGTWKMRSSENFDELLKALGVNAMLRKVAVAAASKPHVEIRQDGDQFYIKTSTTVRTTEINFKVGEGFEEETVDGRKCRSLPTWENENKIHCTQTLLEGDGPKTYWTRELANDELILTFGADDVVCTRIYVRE

In the case of `[3H]c1cc2c(cc1-c1cc3ccc(C(=O)O)cc3s1)C(C)(C)CCC2(C)C` [Example 1, 2-(3-^3 H-5,6,7,8-tetrahydro-5,5,8,8-tetramethyl-2-naphthyl)-6-benzo [b] thiophene carboxylic acid], the “nonspecific fixation (character)” value in assay [1] (in the concentration range employed (up to 50 nM)) was “linear and nonsaturable”. Also, the “nonspecific fixation (% of the total fixation)” value in assay [1] is given as “less than 10%”. Besides, the “specific fixation (character)” value in assay [1] (saturation test, rat testicle homogenate) is “saturable and reversible”. For the same compound, in assay [1] (saturation test, rat testicle homogenate, 2 hours incubation, nonlinear regression (Clark equation), read-out: Kd (dissociation constant at equilibrium)), the Kd (commonly the constant that tells how readily two partners part at equilibrium) is 2.7 ± 0.5 nM.
Take `CC1(C)CCC(C)(C)c2cc(-c3cc4ccc(C(=O)O)cc4s3)ccc21` [compound A, 2-(5,6,7,8-tetrahydro-5,5,8,8-tetramethyl-2-naphthyl)-6-benzo [b] thiophene carboxylic acid]: the Kd in assay [2] came out at 6 nM.
Regarding `C/C(=C\c1ccc(C(=O)O)cc1)c1ccc2c(c1)C(C)(C)CCC2(C)C` [compound B], the Kd is 16 nM in assay [2] and 20 nM in assay [2] (Kd of the cold ligand, radioactive ligand: tritiated retinoic acid, calculated from IC50 of competition curve).
As to `CC1=C(/C=C/C(C)=C/C=C/C(C)=C/C(=O)O)C(C)(C)CCC1` [retinoic acid], in assay [1], the “nonspecific fixation (% of the total fixation)” value is given as “approximately 25%”.
